Test: thermal stability of the solid (stated property, no method described)
Assay type: physicochemical
Conditions: solid amorphous form; test conditions not given

For `CNS(=O)(=O)Cc1ccc2[nH]cc(CCN(C)C)c2c1.O=C(O)CCC(=O)O` [amorphous form of Sumatriptan succinate, 3-[2-(dimethylamino)ethyl]-N-methyl-1H-indole-5-methane sulfonamide succinate], the “thermal stability of the solid” value was “thermally stable”.

Source: US7034162B2, “Amorphous form of 3-[2-(dimethylamino) ethyl]-N-methyl-1H-indole-5-methane sulfonamide succinate (sumatriptan succinate)” (Dr. Reddy's Laboratories Limited, priority 2000, dated 2006)
